Source: patent US20230210891A1, “POLYSACCHARIDE COMPOSITIONS AND THERAPEUTIC GELS” (The University of Birmingham, priority 2020, published 2023)
“Also recorded” adds a separate entry of the source.

How the values were obtained:
[1] = system: rat experimental model of glaucoma; assay: Study 2: intraocular pressure in rat experimental model of glaucoma (IC TGFβ1); type: in vivo; settings: 10 µl eye drop twice a day, day 14 to 28
Description: A rat experimental model of glaucoma was used. All rats received twice weekly intracameral (IC) injections of 3.5 µl 5 µg/ml TGFβ1 from the start of the experiment (day 0) until the end (day 28). This establishes the experimental glaucoma model.
Intraocular pressure (IOP) measures were taken twice weekly using a rebound tonometer, between the hours of 9-11am (to reduce circadian fluctuations in IOP) and before TGFβ injections were administered.
On day 14 rats then also received a single 10 µl eye drop (ED) of either a composition of the invention or a composition representing the standard of care. The eyedrops were administered by pipette, twice a day, every day between day 14 and day 28. Gellan fluid gels were prepared as describe above, and the various sulphated polysaccharides investigated (dextran sulphate, fucoidan, or heparan sulphate) were mixed into the fluid gel at a concentration of 1 mg/ml prior to administration as a single formulation eye drop.
The most common eye drop prescribed clinically for the treatment of glaucoma is latanoprost 50 µg/ml (Xalatan®). Therefore, this treatment was used in this study for the standard of care (SOC).
The groups investigated in the study were as follows: […]

Collagen - Rat tail = target: T1, Collagen - Rat tail (Rattus norvegicus, UniProt P02454+P02466); assay: Collagen fibrillogenesis assay (turbidity, 405 nm plate reader); type: biochemical; settings: for inhibition of collagen fibrillogenesis / collagen fibril formation: increasing doses of polymer
T1 construct: purchased Corning; host or cells: rat tail
Description: Collagen fibrillogenesis was undertaken using collagen acquired from Corning to assess the ability of carrageenans with different degrees of sulphation, gellan gum (LA) and heparan sulphate on their ability to alter fibrillogenesis.
• PBS - Dulbecco’s PBS pH 7.4 • Carrageenans (iota and kappa) (Sigma) • (CGLA) (Kelcogel; Lot #: 5C1623A) • Heparan sulphate (Tinzaparin - mw ~ 9000) • Collagen - Rat tail - Corning 4.04 mg/ml • Deionised water
1. Preparation of stock solutions: • a. A 0.2% (w/v) solution of both carrageenans, gellan and heparan in water were prepared. (0.1 g polymer in 50 ml water) • b. Mixtures were stirred until fully dispersed/hydrated. (prevent water loss by covering the beaker)
2. Preparation of Buffers: • a. PBS diluent buffer; • i. To 200 ml deionised water add sodium phosphate (0.35 g) (0.348 g)and sodium chloride (2.05 g) (2.061 g) • ii. Adjust pH to 7.40 and adjust final volume to 250 ml. • iii. Store at room temperature. • b. PBS reaction buffer; • i. To 200 ml deionised water add sodium phosphate (2.07 g) (2.081 g) and sodium chloride (4.09 g) (4.091 g) • ii. Adjust pH to 7.40. • iii. Add deionised water to create a final volume of 250 ml. • iv. Store at room temp.
3. Collagen fibrillogenesis assay: • a. Pipette […] of buffer (PBS) into rows A and B for blanks. • b. Standard curve generated in a dilution plate. Add 150 ml of each preparation into C1, D1 and E1. • c. Add 150 mL of sample to rows F1, G1 and H1. • d. Add […] of buffer (PBS) to the additional columns 2 to 12. • e. Using a multi-channel pipette, preform a 2-fold dilution by transferring […] from column 1 to column 2. Continue serial diluting through to column 12. Discard the extra […] from column 12. • f. Calculate volume of collagen needed to make 10 ml (enough for 1 plate) at a concentration of […] in chilled water and gently mix.
Target conc. (0.8 mg/ml)Collagen stock conc. in mg/ml × 10=ml of collagen required
10 ml- ?ml of collagen required= ??ml of water required • a. Add […] of collagen to each row (B to H). • b. Add 150 ml of phosphate buffer to all of the wells. • c. Incubate for 2-4 hrs at room temperature and analysed using 405 nm plate reader. (correct for the plate by using 570 nm reference)
Each sample was replicated 3 times, two polymers in each plate (2 plates total). Collagen standard and pbs only were obtained on each plate.

T1 sequence (P02454 152-1207 limits assumed): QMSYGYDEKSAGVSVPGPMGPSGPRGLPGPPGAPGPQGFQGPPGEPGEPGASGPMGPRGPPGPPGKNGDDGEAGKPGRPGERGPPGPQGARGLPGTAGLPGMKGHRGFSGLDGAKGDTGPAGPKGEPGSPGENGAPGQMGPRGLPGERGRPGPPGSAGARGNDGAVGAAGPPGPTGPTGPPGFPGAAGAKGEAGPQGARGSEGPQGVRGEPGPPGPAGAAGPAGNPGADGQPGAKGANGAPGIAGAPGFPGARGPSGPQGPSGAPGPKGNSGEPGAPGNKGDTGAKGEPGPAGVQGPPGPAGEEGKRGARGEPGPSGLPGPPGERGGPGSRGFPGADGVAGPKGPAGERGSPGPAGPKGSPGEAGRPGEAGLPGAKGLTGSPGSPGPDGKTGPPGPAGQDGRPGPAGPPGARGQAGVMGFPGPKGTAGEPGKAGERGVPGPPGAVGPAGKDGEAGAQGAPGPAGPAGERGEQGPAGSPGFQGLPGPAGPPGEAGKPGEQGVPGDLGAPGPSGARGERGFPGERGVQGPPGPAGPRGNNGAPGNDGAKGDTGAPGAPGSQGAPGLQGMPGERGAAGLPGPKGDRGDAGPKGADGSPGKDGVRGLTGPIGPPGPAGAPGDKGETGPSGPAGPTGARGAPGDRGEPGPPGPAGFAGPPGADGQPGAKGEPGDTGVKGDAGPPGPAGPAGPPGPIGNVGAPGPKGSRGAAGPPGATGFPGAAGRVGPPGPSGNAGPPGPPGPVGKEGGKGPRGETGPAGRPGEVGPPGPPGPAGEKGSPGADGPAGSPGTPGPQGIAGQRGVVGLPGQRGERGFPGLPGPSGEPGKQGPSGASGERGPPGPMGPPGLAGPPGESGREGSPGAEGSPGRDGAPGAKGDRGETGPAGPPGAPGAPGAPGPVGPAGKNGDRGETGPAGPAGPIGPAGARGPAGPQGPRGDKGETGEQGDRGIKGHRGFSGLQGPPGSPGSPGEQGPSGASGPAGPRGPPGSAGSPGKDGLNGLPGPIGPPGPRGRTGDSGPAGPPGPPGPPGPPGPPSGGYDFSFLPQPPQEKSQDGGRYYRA
T1 sequence (P02466 86-1125 limits assumed): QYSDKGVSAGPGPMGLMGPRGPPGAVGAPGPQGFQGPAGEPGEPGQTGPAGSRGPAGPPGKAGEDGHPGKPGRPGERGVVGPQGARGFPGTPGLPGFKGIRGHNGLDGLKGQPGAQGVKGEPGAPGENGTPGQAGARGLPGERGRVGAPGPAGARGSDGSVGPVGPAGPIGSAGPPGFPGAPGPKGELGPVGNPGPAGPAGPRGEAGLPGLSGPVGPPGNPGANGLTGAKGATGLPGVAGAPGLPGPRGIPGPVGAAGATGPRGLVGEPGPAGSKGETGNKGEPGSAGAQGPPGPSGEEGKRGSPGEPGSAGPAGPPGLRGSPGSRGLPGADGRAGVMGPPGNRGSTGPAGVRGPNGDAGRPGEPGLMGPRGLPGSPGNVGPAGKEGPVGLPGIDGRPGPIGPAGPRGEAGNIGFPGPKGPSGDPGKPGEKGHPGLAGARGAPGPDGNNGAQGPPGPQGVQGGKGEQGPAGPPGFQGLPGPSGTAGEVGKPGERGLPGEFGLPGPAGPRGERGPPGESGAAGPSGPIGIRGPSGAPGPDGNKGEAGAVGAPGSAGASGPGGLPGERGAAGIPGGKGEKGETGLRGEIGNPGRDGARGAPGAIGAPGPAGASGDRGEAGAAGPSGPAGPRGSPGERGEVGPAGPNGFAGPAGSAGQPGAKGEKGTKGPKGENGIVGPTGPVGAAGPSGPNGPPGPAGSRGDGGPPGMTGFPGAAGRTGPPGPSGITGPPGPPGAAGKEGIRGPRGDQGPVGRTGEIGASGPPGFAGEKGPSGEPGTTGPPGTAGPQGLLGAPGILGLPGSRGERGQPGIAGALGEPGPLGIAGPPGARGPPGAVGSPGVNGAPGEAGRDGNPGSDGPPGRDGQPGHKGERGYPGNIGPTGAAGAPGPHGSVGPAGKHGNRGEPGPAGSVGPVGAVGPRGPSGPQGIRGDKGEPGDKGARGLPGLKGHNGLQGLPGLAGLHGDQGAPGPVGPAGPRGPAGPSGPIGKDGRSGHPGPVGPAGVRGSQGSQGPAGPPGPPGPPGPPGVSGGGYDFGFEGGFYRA

Row | dose required to achieve a 50% reduction in turbidity (rank order; higher degree of sulphonation requires lower dose) (Collagen - Rat tail) | Compound | IOP compared to glaucomatous eyes without any treatment [1] | inhibition of collagen fibrillogenesis / collagen fibril formation (Collagen - Rat tail)
1 |  | CC(C)OC(=O)CCC/C=C\C[C@@H]1[C@@H](CC[C@@H](O)CCc2ccccc2)[C@H](O)C[C@@H]1O [SOC, latanoprost] | significantly reduced IOP | 
2 |  | carrageenan |  | inhibit collagen fibrillogenesis (indicative of an anti-fibrotic activity) in a dose-dependent manner
3 |  | dextran sulphate |  | dose-dependent ability to inhibit collagen fibrillogenesis
4 | lota > lambda > gellan | gellan |  | 
5 |  | heparan sulphate |  | inhibit collagen fibrillogenesis (indicative of an anti-fibrotic activity) in a dose-dependent manner; also recorded: inhibit collagen fibril formation
6 | lota > lambda > gellan | iota carrageenan |  | inhibit collagen fibril formation
7 |  | kappa carrageenan |  | inhibit collagen fibril formation
